Here are results for 2 compounds from US11358947B2, “Substituted 2-acylamino-cycloalkylthiophene-3-carboxylic acid arylamides as inhibitors of calcium-activated chloride channel TMEM16A” (THE REGENTS OF THE UNIVERSITY OF CALIFORNIA, priority 2017, dated 2022).

In one data set the target is T1, TMEM16B (Homo sapiens, UniProt Q9NQ90).
T1 construct: expressed in transfected cells; host or cells: Fischer Rat Thyroid (FRT) cells co-expressing YFP
T1 sequence (Q9NQ90 1-998): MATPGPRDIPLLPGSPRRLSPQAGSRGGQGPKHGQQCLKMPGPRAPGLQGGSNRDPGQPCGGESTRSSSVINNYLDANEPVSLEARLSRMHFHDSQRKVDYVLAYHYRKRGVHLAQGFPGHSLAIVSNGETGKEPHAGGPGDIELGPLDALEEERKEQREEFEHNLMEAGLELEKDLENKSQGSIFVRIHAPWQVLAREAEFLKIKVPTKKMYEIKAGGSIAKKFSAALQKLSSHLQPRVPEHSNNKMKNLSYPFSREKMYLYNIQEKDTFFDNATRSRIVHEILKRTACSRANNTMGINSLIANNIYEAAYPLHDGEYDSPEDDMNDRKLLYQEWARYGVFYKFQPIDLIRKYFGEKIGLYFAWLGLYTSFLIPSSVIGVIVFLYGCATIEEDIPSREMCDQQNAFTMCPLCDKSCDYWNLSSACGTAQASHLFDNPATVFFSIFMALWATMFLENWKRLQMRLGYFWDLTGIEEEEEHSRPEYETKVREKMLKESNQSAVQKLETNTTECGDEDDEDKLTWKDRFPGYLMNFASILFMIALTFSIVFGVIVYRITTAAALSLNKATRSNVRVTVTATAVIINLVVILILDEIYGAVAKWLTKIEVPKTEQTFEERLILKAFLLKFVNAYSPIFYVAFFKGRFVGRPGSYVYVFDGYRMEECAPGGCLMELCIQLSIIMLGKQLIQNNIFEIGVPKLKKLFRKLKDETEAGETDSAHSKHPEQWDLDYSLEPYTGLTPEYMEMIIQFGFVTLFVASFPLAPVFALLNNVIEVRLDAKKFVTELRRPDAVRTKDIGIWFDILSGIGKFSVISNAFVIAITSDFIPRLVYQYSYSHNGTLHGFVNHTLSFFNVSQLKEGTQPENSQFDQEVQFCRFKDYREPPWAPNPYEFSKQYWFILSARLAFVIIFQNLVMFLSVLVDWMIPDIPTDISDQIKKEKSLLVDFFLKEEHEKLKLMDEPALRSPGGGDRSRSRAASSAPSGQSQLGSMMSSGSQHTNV
In words: TMEM16B fluorescence plate reader assay in FRT cells. The format is cell-based. The procedure:
(§1) Concentration-dependent inhibition of TMEM16A measured by short-circuit current assay; TMEM16B and non-TMEM16 anion conductance measured using a fluorescence plate reader assay using FRT and HT-29 cells respectively; cell viability measured in FRT null cells.
(§2) We further assayed the compound potency on endogenous non-TMEM16A. Ca^2+-activated Cl^− channel in HT-29 cells.
TMEM16A functional assay. TMEM16A functional plate-reader assay was done as previously described. […] Test compounds (0.5 μl in DMSO) were added to each well at specified concentration. […] The initial rate of I− influx following each of the solution additions was computed from fluorescence data by nonlinear regression. TMEM16B activity was assayed similarly as described using FRT cells co-expressing YFP and TMEM16B.

The subject of data set [1] is non-TMEM16A Ca2+-activated Cl- channel in HT-29 cells. As to the kind of experiment: Non-TMEM16A CaCC plate reader assay in HT-29 cells expressing YFP. The format is cell-based. The settings on record: Homo sapiens, non-TMEM16 anion conductance, fluorescence plate reader assay. The procedure:
as §1, §2
Plate reader assays of chloride channel function, CFTR inhibition was assayed as described. […] Activity of non-TMEM16A CaCC was assayed as described in HT-29 cells expressing YFP.

A short description of data set [2]: In vitro metabolic stability with rat liver microsomes and NADPH. The format is in vitro ADME. The procedure:
(3B) LC/MS traces showing total ion counts as a function of incubation time.
These compounds were incubated with rat liver microsomes and NADPH, and non-metabolized compounds were quantified by ESI-LCMS. […] It is speculated that Ani-9 could be oxidized at the aryl methyl or N—N bond; or hydrolyzed at the amide or hydrazone linkages.
Compounds (each 10 uM) were incubated for specific time points (2, 5, 15, 30, 60, 180 min) with shaking at 37° C. with rat liver microsomes (1 mg protein/mL, Sigma-Aldrich, St. Louis, Mo.) in potassium phosphate butler (100 mM) containing 1 mM NADPH. The mixture was then chilled on ice, and 0.5 mL of ice-cold ethyl acetate was added. Samples were centrifuged for 15 min at 3000 RPM. The supernatant was evaporated to dryness, and the residue was dissolved in 80 μL of mobile phase (acetonitrile:/water, 3:1, containing 0.1% formic acid) for LC/MS. Reverse-phase HPLC separation was carried out using a Waters C18 column (2.1 mm×100 mm, […]) equipped with a solvent delivery system (Waters model 2690, Milford, Mass.).

Another data set deals with mouse ileum. In words: Ex vivo intestinal contractility of mouse ileum. The settings on record: increasing concentrations added to bath. On the procedure: The effect of a compound according to one embodiment on intestinal contractility was determined in an ex vivo preparation of mouse ileum. Adult mice (CD1 genetic background) were euthanized by avertin overdose (200 mg/kg, 2,2,2-tribromethanol, Sigma-Aldrich) and ileal segments of ˜2 cm length were isolated and washed with Krebs-Henseleit buffer (pH 7.4, in mM: 118 NaCl, 4.7 KCl, 1.2 MgSO4, 1.2 KH2PO4, 25 NaHCO3, 2.5 CaCl2, 11 D-glucose). […] Tissues were stabilized for 60 min with resting tension of 0.5 g and solutions were changed every 15 min.

Data set [3] is described as follows: Pharmacokinetics in rats, serum concentration after IP or oral dosing. The settings on record: rat. The format is in vivo. The procedure:
The pharmacokinetics of compounds according to certain embodiments was studied in rats. […] After treatments blood samples were collected by tail vein puncture at specified time points (15, 30, 60, 120 and 180 min). Serum was separated by centrifuging blood samples at 5000 rpm for 15 min. […] The aliquot was then diluted to a total of 2 mL in PBS. A C18 solid-phase extraction (SPE) column (Thermo Fisher, Waltham, Mass.) was conditioned with methanol (2 mL) and PBS (2 mL). The aliquot was loaded onto the conditioned SPE column, and washed with PBS (2 mL) followed by water (2 mL), and the column then dried under vacuum for 5 min. Analytes were eluted with ethyl acetate (3 mL), and concentrated by rotary evaporation. The residues were reconstituted into methanol (150 μL), and then analyzed using a hybrid quadrupole Q-Exactive Orbitrap mass analyzer (Thermo Fisher, Waltham, Mass.), with an electrospray ionization source, employing parallel-reaction monitoring (PRM) to provide high analytical sensitivity.

Entries after “also recorded” stand apart in the source; their conditions may differ.

As usually defined, the IC50 is the concentration at which inhibition is half-maximal.

For `Cc1ccccc1NC(=O)c1c(NC(=O)C(F)(F)F)sc2c1CCCCC2` [Compound 6aa, 2-(2,2,2-Trifluoro-acetylamino)-5,6,7,8-tetrahydro-4H-cyclohepta[b]thiophene-3-carboxylic acid o-tolylamide], the IC50 is 1400 nM against TMEM16B and 4000 nM in data set [1].

In the case of `Cc1ccccc1NC(=O)c1c(NC(=O)C(F)(F)Br)sc2c1CCCCC2` [Compound 6bm, 2-(2-Bromo-2,2-difluoro-acetylamino)-5,6,7,8-tetrahydro-4H-cyclohepta[b]thiophene-3-carboxylic acid o-tolylamide], in data set [2] (rat liver microsomes + NADPH, 10 uM, 180 min), the Compound remaining is on record as approximately 30%. In addition, the “Metabolic stability compared to Ani-9 (in words)” value in data set [2] (time course of compound degradation, rat liver microsomes) is “remarkably greater stability”. Moreover, the “Effect on spontaneous isometric contractions of ileum” value in the data set on mouse ileum is reported as “strongly inhibited; also recorded: suppression of isometric smooth muscle contractions”. Further, in data set [3] (4 mg/kg IP or oral), the “Toxic effect (in words)” value is given as “No toxic effect was seen”. Moreover, the Serum concentration result in data set [3] (4 mg/kg intraperitoneal, for up to 2 h) was “greater than 3.5 μM”; in data set [3] (4 mg/kg oral, for 3 h) it was “greater than 0.5 μM”. Moreover, the Peak serum concentration was found to be 6.5 µM in data set [3] (4 mg/kg intraperitoneal, peak at 60 min) and 1.9 µM in data set [3] (4 mg/kg oral, peak at 2 h). Besides, the “Detectability in serum (in words)” value in data set [3] (after intraperitoneal (IP) or oral administration (PO)) is listed as “detectable at pharmacologically relevant concentrations”.
